Experimental data from US6696069B2, “Skin care cosmetic compositions containing phosphates and/or sulfates of branched alcohols and/or ethoxylates thereof” (Unilever Home & Personal Care USA, division of Conopco, Inc., priority 2000, dated 2004).
Several values for one entry are separate records, joined by “and”; a condition that tells them apart may be missing. Equal entries are not always repeated. Structures can show the parent of a compound that is named as a salt. Marks after values point to notes of the source that are not given here.

Tests used:
human sebocytes = assay: Inhibition of sebocyte lipogenesis (14C-acetate incorporation); assay type: cell-based; conditions: for lipogenesis inhibition (result in words): in combination with retinol, in comparison to either alone
[1] = test system: Neonatal human dermal fibroblasts; assay: Production of procollagen I by fibroblasts (slot blot, densitometry); assay type: cell-based; conditions: for Average OD (optical density) Reading / Fold increase Over Control / % Increase (+) or % decrease (−−) over control: procollagen I; for collagen synthesis by fibroblasts (result in words): text summary of Tables 1 and 5; for % Increase (+) or % decrease (−−) over control: positive control, concentration not given
Procedure: This example measured production of procollagen I by fibroblasts in response to treatment with various straight chain and branched alcohols alone.
Procollagen I Staining Protocol for Slot Blot
Neonatal human dermal fibroblasts were purchased from Clonetics Corp., San Diego, Calif. All materials for cell culture were purchased from Life Technologies, NY (and used in passages 5-10). Cells were seeded at a density of approximately 10,000/well in the inner 48 wells of a 96-well plate in a medium containing DMEM (Dulbecco's Modified Eagle's Medium), high-glucose supplemented with 2 mM L-glutamine, 10% fetal bovine serum, and antibiotic and antimycotic solutions. Cells were then grown to confluence for 2 days. At confluence, the medium was removed and cells were washed with serum-free DMEM, and each well dosed with 200 μl of a solution of a test compound in serum-free DMEM. Each dosing was replicated in a total of six wells. […] After 24 hours, the test compound solution or the control solution was removed and cells redosed with 100 μl of a solution of a test compound in serum-free DMEM.
Nitrocellulose membrane and 3 sheets of filter paper were soaked in TRIS buffered saline (TBS, pH 7.3.). BioRad slot blot apparatus (BioRad Labs, CA) was set up with 3 sheets filter paper on bottom, membrane on top, and tightened. […] TBS was added per well. Vacuum was used to suck TBS through membrane. The test compound solution or control was vortexed, then 100 μl was loaded per well and gravity filtered. Procollagen from the test solution was bound to the membrane at this point in the procedure. Membrane was removed from the apparatus, excess cut off, and bottom right corner notched for orientation. The membrane was placed in blocking solution (5% milk powder in Dulbecco's phosphate buffered saline) overnight at 4° C., with shaking. The membrane was then incubated for 1.5 hrs at room temperature with 1.5 mL Rat Anti-Human Procollagen Amino-Terminal Ab (Chemicon MAB1912) in TBS with 0.1% BSA (Bovine Serum Albumin) (ratio of antibody to buffer/BSA was 1:100) in a sealed bag with shaking. The membrane was then removed; washed 3 times for 5 minutes in TBS/0.1% Tween. The membrane was then incubated for 1 hour at room temperature in 2 mL of Biotinylated Anti-Rat Peroxidase-Conjugated Ab (Vector Labs) in TBS with 0.1% BSA (ratio of antibody to buffer/BSA was 1:1000) in a sealed bag with shaking. The membrane was then stained using the following solution:
12.5 mg 3-amino 9-ethyl carbazole (Sigma)
3.125 (approximately) mL DMF (N,N-dimethylformamide, from Sigma)
The membrane was stained until color developed and the reaction stopped with 2 washes for 10 minutes in tap water. The blot was scanned on a Bio-Rad GS700 Image Analysis densitometer. Percent change from control was calculated from densitometer readings as follows: [(Reading for test compound−Reading for control)/Reading for control]*100. Control has a reading of 100%. Statistical significance (p value) was calculated using student's t-test.
TGF-B is a positive control, ensuring the integrity of the assay: transforming growth factor beta is known to increase procollagen I in fibroblasts.
This example measured production of procollagen I by fibroblasts in response to treatment with various test compounds.
The experiment was conducted as described in Example 1 above. Fold increase was calculated as a ratio of densitometer reading for cells treated with a test compound over control.

[2] = lipogenesis, 1 μM + 1 μM Retinol
[3] = lipogenesis, 1 μM + 10 μM Retinol
[4] = lipogenesis, 10 μM + 1 μM Retinol
[5] = lipogenesis, 10 μM + 10 μM Retinol

Iso-tridecyl Phosphate
lipogenesis inhibition (result in words) (human sebocytes): enhanced inhibition of lipogenisis production | % of Control (human sebocytes; [2]): 78.1* % | % of Control (human sebocytes; [3]): 71.6* % | % of Control (human sebocytes; [4]): 70.6* % | % of Control (human sebocytes; [5]): 66.9* % | % of Control (human sebocytes; lipogenesis, 100 μM + 1 μM Retinol): 74.1* % | % of Control (human sebocytes; lipogenesis, 100 μM + 10 μM Retinol): 78.2% | Average OD (optical density) Reading ([1]; Plate 2, 0.0001%): 2.170 | Fold increase Over Control ([1]; Plate 2, 0.0001%): 2.17 | Average OD (optical density) Reading ([1]; Plate 2, 0.001%): 1.460 | Fold increase Over Control ([1]; Plate 2, 0.001%): 1.460 | collagen synthesis by fibroblasts (result in words) [1]: increased collagen production

Iso-tridecyl Phosphate (Disodium salt)
% of Control (human sebocytes; lipogenesis, 1 μM, alone): 90.7% | % of Control (human sebocytes; lipogenesis, 10 μM, alone): 88.4% | % of Control (human sebocytes; lipogenesis, 100 μM, alone): 88.3%

CC1=C(/C=C/C(C)=C/C=C/C(C)=C/CO)C(C)(C)CCC1 [Retinol, reference compound]
activity at 1 µM (human sebocytes; Homo sapiens, lipogenesis, 1 μM, alone, read-out: % of Control): 91.8% | activity at 10 µM (human sebocytes; Homo sapiens, lipogenesis, 10 μM, alone, read-out: % of Control): 106% | % of Control (human sebocytes; lipogenesis, 1 μM, alone): 97.4% and 93.2% and 91.5% | % of Control (human sebocytes; lipogenesis, 10 μM, alone): 106.0% and 101.8%

TGF-B [reference compound]
% Increase (+) or % decrease (−−) over control ([1]; Experiment 1): +50* % | % Increase (+) or % decrease (−−) over control ([1]; Experiment 2): +140* % | Average OD (optical density) Reading ([1]; Plate 1, 0.001%): 1.348 | Fold increase Over Control ([1]; Plate 1, 0.001%): 1.72 | Average OD (optical density) Reading ([1]; Plate 2, 0.001%): 1.653 | Fold increase Over Control ([1]; Plate 2, 0.001%): 1.65

Iso-tridecyl Sulfate
lipogenesis (result in words) (human sebocytes; alone or as a salt, Table 2): reduced lipogenesis production | lipogenesis inhibition (result in words) (human sebocytes): improved lipogenesis inhibition | % of Control (human sebocytes; [2]): 70.6* % | % of Control (human sebocytes; [3]): 64.4* % | % of Control (human sebocytes; lipogenesis, 1 μM, alone): 72.5* % | % of Control (human sebocytes; [4]): 56.1* % | % of Control (human sebocytes; [5]): 47.5* % | % of Control (human sebocytes; lipogenesis, 10 μM, alone): 58.2* % | % of Control (human sebocytes; lipogenesis, 35.6 μM, alone): 63.5% | % of Control (human sebocytes; lipogenesis, 178 μM, alone): 18.1* % | % of Control (human sebocytes; lipogenesis, 356 μM, alone): 7.4* % | Average OD (optical density) Reading ([1]; Plate 1, 0.0001%): 1.000 | Fold increase Over Control ([1]; Plate 1, 0.0001%): 1.28 | Average OD (optical density) Reading ([1]; Plate 1, 0.001%): 1.223 | Fold increase Over Control ([1]; Plate 1, 0.001%): 1.56 | collagen synthesis by fibroblasts (result in words) [1]: increased collagen production

O=S1(=O)OC(c2ccc(O)cc2)(c2ccc(O)cc2)c2ccccc21 [Phenol Red, reference compound]
activity at 28 µM (human sebocytes; Homo sapiens, lipogenesis, 28 μM, alone, read-out: % of Control): 91.9% | activity at 280 µM (human sebocytes; Homo sapiens, lipogenesis, 280 μM, alone, read-out: % of Control): 58.1% | % of Control (human sebocytes; lipogenesis, 28 μM, alone): 92.0% and 79.3% and 84.0% | % of Control (human sebocytes; lipogenesis, 280 μM, alone): 61.7* % and 70.6* %

CC(C)CCCCCCCCCCOS(=O)(=O)O [Iso-tridecyl Sulfate, sodium salt]
activity at 33.1 µM (human sebocytes; Homo sapiens, lipogenesis, 33.1 μM, alone, read-out: % of Control): 54.9% | activity at 165.5 µM (human sebocytes; Homo sapiens, lipogenesis, 165.5 μM, alone, read-out: % of Control): 14% | activity at 331 µM (human sebocytes; Homo sapiens, lipogenesis, 331 μM, alone, read-out: % of Control): 5.5%
